Reference: the METLIN SMRT retention time set (Domingo-Almenara et al. 2019)

Assay: gradient 5% acetonitrile 3 min, to 50% in 2 min, to 85% in 15 min, held 3 min, 100 µL/min
Conditions: column: Zorbax Extend-C18 2.1 x 50 mm; eluents: water / acetonitrile, 0.1% formic acid
In short: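 Data were gathered over 3 months by HPLC coupled to a quadrupole time-of-flight mass spectrometer, operated in positive and negative ionization mode. Mixtures of ~100 pure standards ran on a Zorbax Extend-C18 column (2.1 × 50 mm, 1.8 μm) at 100 μL/min, with water and acetonitrile each containing 0.1% formic acid and dead and dwell volumes of 40 μL and 900 μL. Retention time was read from adduct peaks picked by computer and checked manually.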

| Compound | RP-LC retention time |
| --- | --- |
| Cc1noc2ncnc(N3CCCC(C(=O)N4CCN(Cc5ccc6c(c5)OCO6)CC4)C3)c12 (configuration not stated) | 611 s |
| COC(=O)c1sc2ccc(NC(=O)C3CCN(S(=O)(=O)N4CCOCC4)CC3)cc2c1OC | 853 s |
| COc1ccc(NS(=O)(=O)c2ccc(-c3nnc(C4CCC4)o3)o2)cc1F | 868 s |
| CC(C)Oc1cncc(C(N)=O)c1 | 583 s |
| COc1cccc(S(=O)(=O)N2CCOCCNC(=O)[C@@H]3CCC[C@@H]32)c1 | 740 s |
| O=C(NCc1ccccc1Cl)C1CCN(c2cncnc2N2CCCC2)CC1 | 677 s |
| CCOc1cc(=O)n2c(c1C(=O)Nc1cc(F)cc(F)c1)CCCC2 | 794 s |
| O=C(c1ccc(-c2ccnc(N3CCCCC3)n2)cc1)N1CCC2(CC1)OCCO2 | 882 s |
| CC(C)(C)Cn1c(N)nc2ccc(-c3[nH]c(C(C)(C)C)nc3-c3ccc(F)cc3)nc21 | 631 s |
| Cc1ncc([N+](=O)[O-])n1CCOC(N)=O | 624 s |
| COc1ccc(-c2noc(Cc3nc(-c4ccc(Cl)cc4)cs3)n2)cc1 | 1270 s |
| CCc1nnc2ccc(-c3noc(-c4cccc(Cl)c4)n3)cn12 | 1070 s |
| Nc1cc(C2CCN(C(=O)Nc3ccc(F)cc3F)CC2)no1 | 666 s |
| COc1ncc(C(=O)Nc2ccc(F)c(Cl)c2)c(C)n1 | 825 s |
| COc1ccc(N2CC(c3noc(-c4ccc(F)cc4)n3)CC2=O)cc1 (configuration not stated) | 926 s |
| COc1cc2c(cc1/C=C/[N+](=O)[O-])OC(C)C2 (configuration not stated) | 908 s |
| COc1ccc(S(=O)(=O)Cc2nc(-c3cccc(C(F)(F)F)c3)no2)cc1 | 1060 s |
| CCc1csc(-c2ccc(N3CCN(C(=O)c4ccc(OC)c(OC)c4)CC3)nc2)n1 | 839 s |
| CC1(C)CC(O)CC(C)(C)N1CC(O)COc1ccc(Cl)cc1Cl (configuration not stated) | 590 s |
| O=C(c1cc(F)cc(F)c1)N1CCC(n2c(-c3ccco3)nc3cccnc32)C1 (configuration not stated) | 766 s |
| Cc1nc2cc(-c3noc(COc4ccc(Cl)cc4C)n3)ccc2o1 | 1180 s |
| CCS(=O)(=O)c1nc2ccc(NS(=O)(=O)c3cccc(F)c3)cc2s1 | 851 s |
| COCCN1CCC(N2CCN(S(=O)(=O)c3ccc(F)cc3F)CC2)C1=O (configuration not stated) | 570 s |
| CC(C)C(=O)N1CCC(Cc2noc(C3CC3)n2)C1 (configuration not stated) | 692 s |
| Nc1nc(N)nc(-c2cc(Cl)ccc2Cl)n1 | 714 s |
| CCOc1nccnc1NC1CCN(C(=O)c2ccco2)CC1 | 585 s |
| COc1ccc(-c2ncc(NC(=O)C(C)C)cn2)cc1 | 802 s |

Further lines, results first:

| RP-LC retention time | Compound |
| --- | --- |
| 881 s | O=C(NCc1cnoc1-c1ccc(F)cc1)c1ccc2c(c1)OCO2 |
| 565 s | O=C(C1=C(O)C(=O)N(CCCn2ccnc2)C1c1cccc([N+](=O)[O-])c1)c1cccs1 (configuration not stated) |
| 839 s | COc1ccccc1-c1nnc(SCC(=O)N2CCc3ccccc32)o1 |
| 664 s | Cc1ccc(N2CCN(C(=O)c3cn4ccc(C)cc4n3)CC2)cc1 |
| 1210 s | Cc1nc(-n2cccc2)sc1C(=O)OCc1cc(-c2ccc3c(c2)OCCO3)on1 |
| 791 s | O=C(Nc1ccccc1)C1CCN(C(=O)c2ncn3c2COC(c2ccc(F)cc2)C3)CC1 (configuration not stated) |
| 682 s | O=C(CN1CCN(Cc2ccccc2)C1=O)NCC1CCCCC1 |
| 705 s | Cc1ccc2nc(NC(=O)CSc3nnc(CNC(=O)c4ccco4)o3)sc2c1 |
| 814 s | CN1C(=O)c2cc(C(=O)NCCCc3ccccc3)nn2CC1(C)C(=O)NCc1ccccc1 (configuration not stated) |
| 1070 s | COc1ccc(C2(C(=O)N3CCCC3c3nc(-c4ccccc4Cl)no3)CC2)cc1 (configuration not stated) |
| 660 s | CNC(=O)c1ccc(-c2nc3cc(NS(=O)(=O)c4ccc(Cl)s4)ccc3n2C)cc1 |
| 874 s | Cc1ccc(NC(=O)CCCn2cccc2)cc1F |
| 650 s | CCc1ccc(NC(=O)c2ccc(=O)n(CCN3CCCC3)c2)cc1 |
| 787 s | C=CCN1C(=O)COc2ccc(-c3nc(NC(C)=O)sc3C)cc21 |
| 970 s | CCOc1ccccc1OCc1nn2c(-c3ccoc3C)nnc2s1 |
| 672 s | Cn1cc(-c2ccncc2)cc1C(=O)NCc1cccc(Br)c1 |
| 964 s | O=C1CC(c2noc(-c3ccccc3Cl)n2)CN1c1ccc(F)cc1 (configuration not stated) |
| 922 s | CCOC(=O)c1ccc(NC(=O)Cc2csc3nc(-c4ccc(C)c(C)c4)cn23)cc1 |
| 729 s | Cc1noc(-c2nn(C)c3c2CN(C(=O)COc2ccccc2)CC3)n1 |
| 607 s | O=C(NCCc1ccccc1)N1CCN(c2cc(-c3ccncc3)[nH]n2)CC1 |

| RP-LC retention time | Compound |
| --- | --- |
| 981 s | CCCc1nnc(C(=O)Nc2cccc(C(=O)NCCc3c[nH]c4ccc(Cl)cc34)c2)s1 |
| 813 s | COC(=O)c1ccc(-c2nc3cnccn3c2Nc2ccc3c(c2)OCCO3)cc1 |
| 846 s | O=S(=O)(c1ccccc1Cl)N1CCN(Cc2cccc(F)c2)C2(CCOCC2)C1 |
| 709 s | Cc1nn(CC(=O)NCC2CCCO2)c(=O)c2nc(-c3ccccc3)sc12 (configuration not stated) |
| 1130 s | O=C(c1nnc(-c2ccc(S(=O)(=O)N3CCCCC3)cc2)o1)N1CCN(c2ccccc2F)CC1 |
| 732 s | COc1cccc(-c2cn3c(C(=O)Nc4ncccc4C)csc3n2)c1 |
| 910 s | COc1ccc(-n2ncc3c(=O)n(Cc4nc(-c5ccc(OC)c(OC)c5)no4)cnc32)cc1 |
| 671 s | O=C(Cn1c(-c2cccs2)cc2cc(F)ccc21)NCCCN1CCOCC1 |
| 787 s | CCCCOc1ccc(NC(=O)c2cc(=O)c3cc(Cl)ccc3o2)c2cccnc12 |
| 693 s | CCC(=O)N1CCc2cc(N3CC(C(=O)Nc4cccc(C)c4)CC3=O)ccc21 (configuration not stated) |
| 1010 s | COc1ccc2cccc(NC(=O)c3ccco3)c2n1 |
| 1020 s | Cc1cc(C)cc(NC(=O)Cn2nc(N3CCSCC3)c3ccccc3c2=O)c1 |
| 820 s | CSc1ccc(CCNC(=O)C2CCCN(c3ncnc4c3nc3n4CCCCC3)C2)cc1 (configuration not stated) |
| 585 s | CN1C(=O)c2cc(C(=O)NCCCN3CCCC3)nn2CC1(C)C(=O)NCc1ccc(F)cc1 (configuration not stated) |
| 599 s | CC(C)n1c(-c2cccc(C(=O)NCCN3CCCCC3)c2)nc2cccnc21 |
| 859 s | Cc1nc(OCC(=O)Nc2ccc(Cl)c(Cl)c2)c2ccccc2n1 |
| 705 s | Cc1cc(NC(=O)c2ccccc2)cc(C)c1O |
| 1240 s | COc1ccc(-c2noc(N3CCC(Cc4ccccc4)CC3)n2)cc1OC |
| 861 s | Cc1ccc(Cn2cc(C(=O)O)c(S(=O)(=O)N3CCSCC3)n2)cc1 |
| 830 s | O=C(c1ccc(F)c(F)c1)N1CCC2(CC1)NC(=O)N(Cc1ccc(F)cc1)C2=O |
